Source: patent publication US6887981B2, “Natural antibacterial peptide, the nucleotide sequence encoding it and the use thereof” (Shanghai CAS Shenglonda Biotech (Group) Co., Ltd., priority 2002, dated 2005)

Legend:
[1] = EDS rat model, androgen (serum testosterone) level after EDS injection; assay type: in vivo, Sprague-Dawley rat; settings: adult rat, intraperitoneal EDS 7.5 mg/100 g bodyweight; restored in about two weeks
Protocol: The “▴” line represents rat serum testosterone level at various time intervals after EDS injection. The “♦” line represents rat Bin1b expression changes which are calibrated by 18s level.
Adult Sprague-Dawley was intraperitoneally injected with EDS (7.5 mg/100 g bodyweight) in DMSO-H2O (1:3, v/v). The rats were sacrificed on day 1, 3, 7, 14, 21, 28 and 42. The rat without EDS injection served as the negative control. 20 ug total RNA was extracted from rat caput epididymis, fractionated by 1.2% formaldehyde agarose gel electrophoresis, blotted onto Hybond-N+ membrane and hybridized with a probe located at Bin1b cDNA 3′ terminal and 18s ribosome RNA probe.

E. coli = test: Antimicrobial activity of secretions of primary epididymal epithelial cultures, CFU counting; assay type: cell-based; settings: concluded from caput culture secretions and antisense block
Protocol: FIG. 7A. […] 100 colony forming units (CFU) of E. coli was added to cultures 16 hours prior to examination.
A total of 100 colony-forming units (CFU) of E. coli was added to the apical compartment of the epithelial cells separately from caput epididymis and cauda epididymis. The medium was collected 16 hours later for CFU counting.

CS(=O)(=O)OCCOS(C)(=O)=O [EDS, Ethylene Dinethamesulfonate]
secretion of androgen after EDS injection [1]: decreased immediately

B1: Bin1b: natural antibacterial peptide of beta-defensin family expressed in rat caput epididymidis; SEQ ID NO:2, mature form SEQ ID NO:3 (protein, listed as Homo sapiens)
chain: MKVLLLFAVFFCLVQRNSGDIPPGIRNTVCFMQRGHCRLFMCRSGERKGDICSDPWNRCCVSSSIKNR
modifications: ends and bridges not checked
antimicrobial activity of Bin1b (E. coli): antimicrobial activity
